According to patent publication EP0535336A2, “MK protein as cell growth inhibitor” (AMERICAN CYANAMID COMPANY, priority 1991, dated 1993):

Assays:
[1] = test system: human embryonal carcinoma (EC) cell line NT2/D1; test: Retinoic acid induction of NT2/D1 cells (differentiation, northern analysis); assay type: cell-based; settings: nine days of RA, 0.01 to 10 µM, normalized to β-actin probe
Description: The human embryonal carcinoma (EC) cell line NT2/D1 can be induced to differentiate at concentrations of retinoic acid (RA) varying from 0.01 to 10 µM, with the proportion of differentiating EC cells ranging from 50% at […] RA to greater than 99% at […] RA. The expression of MK and HBNF during differentiation of NT2/D1 is studied, at concentrations ranging from 0.01 to 10 µM. After nine days of exposure to RA, total RNA was extracted from cells and probed for gene expression by northern analysis. Expression of both gene follows a similar pattern. Levels of mRNA expression remain at a steady background level. When RNA hybridization signals are normalized to a control β-actin probe, the maximum increases are calculated to be 6-fold for HBNF and 11-fold for MK. […] In this cell line, MK gene expression is induced 8-10 fold above background.
The human embryonal carcinoma cell line Nt2/D1 is grown. For retinoic acid induction, cells are grown and resuspended in DMEM medium containing 10% bovine calf serum and resuspended in DMEM medium containing 10% bovine calf serum (Hyclone Laboratories, Inc.) at a density of 5 x 10⁵ cells per 100 mm dish. Varying concentrations of all-trans retinoic acid in dimethyl sulfoxide (10 µl) is added and cells are incubated for 9 days. Fresh medium and RA are added at days 4 and 8. […]

[2] = test system: mouse EC cell line, HM-1; settings: retinoic acid induction; cited from earlier work

Compound: CC1=C(/C=C/C(C)=C/C=C/C(C)=C/C(=O)O)C(C)(C)CCC1 [RA, all-trans retinoic acid]
- maximum increase of HBNF mRNA expression [1]: 6 fold
- maximum increase of MK mRNA expression [1]: 11 fold
- MK gene expression induced above background [2]: 8-10 fold
